Assay results reported in patent US10696629B2, “Crystalline form of dextral oxiracetam, preparation method therefor and use thereof” (CHONGQING RUNZE PHARMACEUTICAL COMPANY LIMITED, priority 2016, dated 2020).
“Also recorded” adds a separate entry of the source.

Experiments:
[1] = variable-temperature powder X-ray diffraction (crystal form stability at high temperatures); format: physicochemical; conditions: heated from 30° C. to 80° C.; powder X-ray diffraction at 35, 45, 55, 65 and 75° C.
Experimental: The crystalline form III of dextral oxiracetam of the invention was placed on a single crystal silicon sample stage, heated from 30° C. to 80° C., and subjected to powder X-ray diffraction measurement at 35° C., 45° C., 55° C., 65° C. and 75° C., respectively. […] It can be seen that the crystalline form III of dextral oxiracetam of the invention has good stability at high temperatures. […] It can be confirmed that the crystalline form III of dextral oxiracetam is temperature stable. When the crystalline form III of dextral oxiracetam of the invention is used for storage or formulation processing, the requirements on processing and storage temperatures are reduced.

solubility in water = format: physicochemical

solubility (solubility in water): ≥ 100 mg/mL
SMILES: NC(=O)CN1C[C@H](O)CC1=O [dextral oxiracetam]
crystal transformation on heating (stability at high temperatures) [1]: does not show a phenomenon of crystal transformation; also recorded: does not exhibit crystal transformation phenomenon
